The assay addresses T1, Macrophage scavenger receptor types I and II (Homo sapiens, UniProt P21757).
T1 sequence (P21757 whole entry): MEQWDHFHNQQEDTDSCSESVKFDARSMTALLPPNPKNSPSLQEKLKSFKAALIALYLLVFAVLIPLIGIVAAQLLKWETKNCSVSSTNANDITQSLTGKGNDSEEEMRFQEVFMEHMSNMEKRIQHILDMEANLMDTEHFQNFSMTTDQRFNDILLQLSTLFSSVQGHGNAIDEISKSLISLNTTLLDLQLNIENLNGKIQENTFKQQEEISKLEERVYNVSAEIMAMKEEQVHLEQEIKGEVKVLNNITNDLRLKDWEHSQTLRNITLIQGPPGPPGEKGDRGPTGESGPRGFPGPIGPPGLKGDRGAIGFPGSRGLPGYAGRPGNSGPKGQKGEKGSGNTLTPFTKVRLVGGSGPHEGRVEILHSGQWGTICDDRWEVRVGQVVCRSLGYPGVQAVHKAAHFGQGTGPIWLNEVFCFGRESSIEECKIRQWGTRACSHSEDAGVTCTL
As to the kind of experiment: Inhibition of full-length MSR1 transfected in HEK293 cells by fluorimetry. The format is cell-based.

SMILES strings stand for the structures.

The record followed here is ChEMBL document CHEMBL1145719, “Rigidone, a sesquiterpene o-quinone from the gorgonian Pseudopterogorgia rigida” (J Nat Prod, 1997).

One may read the IC50 as the concentration at which inhibition is half-maximal. Read a high IC50 as weaker potency in that assay. `CC(C)=CCC[C@H](C)C1=C(O)C=C(C)C(=O)C1=O` [RIGIDONE]: the half-maximal inhibitory concentration (IC50) was 5.6 µM. The compound `CC(C)=CCC[C@H](C)c1c(O)c(O)c(C)c2nc3ccccc3nc12` had an IC50 of 71 µM.
